# According to the METLIN SMRT retention time set (Domingo-Almenara et al. 2019):
# Experiment: gradient 5% acetonitrile 3 min, to 50% in 2 min, to 85% in 15 min, held 3 min, 100 µL/min
# Details: column: Zorbax Extend-C18 2.1 x 50 mm; eluents: water / acetonitrile, 0.1% formic acid
# Summary of the method: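 Pure standards were analyzed in mixtures of ~100 molecules using HPLC coupled to a quadrupole time-of-flight mass spectrometer, in both positive and negative ionization mode. Separation used a Zorbax Extend-C18 column (2.1 × 50 mm, 1.8 μm) at 100 μL/min, with water and acetonitrile each containing 0.1% formic acid. Dead and dwell volumes were 40 μL and 900 μL, and data were collected over 3 months. Retention time was read from computationally picked adduct peaks, each inspected manually.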
row,Structure (SMILES),RP-LC retention time [s]
1,CCCc1noc(-c2ccc(-n3ncc(C(=O)NC(C)C)c3C)nc2)n1,970
2,CC(C)N1C(=O)C(C)(C(=O)NC2CCCCC2)Oc2cccnc21 (centres undefined),1010
3,Cn1nccc1-c1cccc(-c2noc(-c3ccc(CS(=O)(=O)c4ccccc4)cc3)n2)c1,1080
4,O=C(Nc1cc(F)c2nc(N3CCOCC3)ccc2c1)c1cccs1,787
5,CCCN(C(=O)C1CCCN(c2ncnc3c2nc2n3CCCCC2)C1)c1ccccc1C (centres undefined),1000
6,COc1ccc(OC)c(NS(=O)(=O)c2ccc3c(c2)C(=O)N(C)c2ncccc2O3)c1,872
7,Cc1cc(S(=O)(=O)[C@H]2CS(=O)(=O)C[C@@H]2N2CCN(Cc3ccccc3)CC2)ccc1F,678
8,O=C1C(=C2C=C(c3ccccc3)OC3=C2CCCC3)C(=O)c2ccccc21,1150
9,CCC(C)Oc1nc2c(c(=O)n(C)c(=O)n2C)n1C (centres undefined),865
10,Cn1ccc2ccn(CC(=O)NCc3ccc(Cl)cc3)c(=O)c21,768
11,Cc1cc(-c2c(C)sc(C)c2S(=O)(=O)Nc2ccc(F)c(Cl)c2)n[nH]1,1120
12,CCCc1ccc(S(=O)(=O)N2C[C@@H](F)C[C@H]2C(=O)N2CCc3ccccc3C2)cc1,1060
13,CCOC(=O)CC1(NC(=O)N2CCC(c3nc4ccncc4n3C)C2)CCCCC1 (centres undefined),553
14,Cc1ccc(C2Cn3cnc(C(=O)N4CCC(C(=O)NCc5ccco5)CC4)c3CO2)cc1 (centres undefined),729
15,Cc1ccc(C)c(CNC(=O)c2cnc(-c3ccccc3)nc2-c2ccncc2)c1,913
16,CCn1cc(C(=O)O)c(=O)c2ccc(Cc3ccccc3)nc21,1010
17,CC1CCN(c2ncc3c(n2)CCC(C(=O)NC(C)c2ccccn2)C3)CC1 (centres undefined),614
18,COc1ccccc1-c1nc(-c2ccc(S(=O)(=O)N3CCCC3)cc2)no1,1080
19,COc1ccc2[nH]c(C(=O)N3CC(n4cc(COCC5CC5)nn4)C3)cc2c1,742
20,CC1CCN(S(=O)(=O)c2ccc3nc(N4CCN(C(=O)c5ccco5)CC4)ccc3c2)CC1,852
21,COc1ccccc1-c1nnc(-c2ccc(C)c(S(=O)(=O)N3CCOCC3)c2)o1,867
22,Cc1cc2c(cc1S(=O)(=O)N1CCCC1C(=O)N(Cc1ccccc1)C(C)C)OCC(=O)N2 (centres undefined),837
23,CCCCCNC(=O)c1ccc(Oc2nccnc2N2CCC(C)CC2)cc1,1220
24,CCCCn1c(=O)c2ccccc2n(Cc2nc(-c3ccc(F)c(Br)c3)no2)c1=O,1320
25,CC(C)(C)NC(=O)N1CCC(c2nc(CCNC(=O)C3CC3)cs2)CC1,675

row,Structure (SMILES),RP-LC retention time [s]
1,CN(C)c1ccc(C(=O)Nc2cc(-c3ccsc3)no2)cc1,961
2,CCn1cc(-c2nc(C(=O)NCc3ccc(OC)cc3)cs2)c2cccnc21,958
3,COCCCNC(=O)c1ccc(OCc2nnc(C(=O)Nc3ccccc3F)s2)cc1,806
4,CC(=O)Nc1ccc(CCc2nc3ccc(C(=O)NCCC(C)C)cc3[nH]2)cc1,630
5,Cc1ccc(S(=O)(=O)N(C)CC2(C)CCOCC2)cc1F,957
6,O=C1CCN(C(=O)C2CCN(C(=O)c3ccoc3)CC2)CCCCCCN1,612
7,CCCc1cc(N2CCN(C(=O)c3nccc4ccccc34)CC2)nc2nncn12,619
8,Cc1noc(C2CN(C(=O)Nc3c(F)cccc3F)CC23CCOCC3)n1 (centres undefined),654
9,Cc1ccnc(Nc2nc(C)c(C(=O)N3CCC(C(N)=O)(N4CCCCC4)CC3)s2)c1,561
10,O=C(Nc1cnn(-c2ncncc2N2CCSCC2)c1)NC1CCCCC1,742
11,O=C(CC1CCCC1)Nc1cnc(-c2cccnc2)nc1,689
12,Fc1cccc(Cc2nc(-c3cccc(-c4ccn[nH]4)c3)no2)c1,915
13,Cc1ccc(-c2noc(Cn3c(=O)n(C(C)C)c(=O)c4ccccc43)n2)cc1,1150
14,CCN1CCN(C(=O)c2nnc(-c3ccc(S(=O)(=O)N4CCCCC4)cc3)o2)CC1,665
15,CCn1c(=O)c2c(cc(C)n2C)n(CC(=O)Nc2ccc(F)cc2F)c1=O,764
16,COc1ccc(-c2ccc(CNCC3CCNCC3)o2)cc1Cl,579
17,O=C(CSc1nnc(-c2cccnc2)o1)Nc1c(Cl)cccc1Cl,654
18,N#Cc1ccc(C(=O)Nc2cnc(N3CCCCC3)nc2)cc1,862
19,O=C(c1ccoc1)N1CCC(c2noc(-c3ccncc3)n2)C1 (centres undefined),665
20,CCCNC(=O)C1CCN(c2ccc(SCC(=O)Nc3ccc(Br)cc3)nn2)CC1,689
21,CCc1ccc(N2CC(c3noc(-c4ccccc4Cl)n3)CC2=O)cc1 (centres undefined),1050
22,CCn1c(=O)c(N2CCN(C(=O)Nc3ccc(Br)c(C)c3)CC2)nc2cccnc21,1060
23,O=C(c1ccc(F)cc1)N1CCC(CCNS(=O)(=O)c2cc(F)ccc2F)CC1,870
24,CCc1cccc(CC)c1NC(=O)N1Cc2[nH]nc(NC(=O)c3ccc(N4CCN(C)CC4)cc3)c2C1,664
25,COc1cccc(C2CC(c3ccc(Br)cc3)=NC3(CCN(C)CC3)N2)c1O (centres undefined),620

# Next, values leading:
row,RP-LC retention time [s],Structure (SMILES)
1,908,Cn1cc(-c2nc(C(=O)NCc3ccccc3F)cs2)c2cccnc21
2,641,COc1ccc(-c2cc3c(=O)n(CC(=O)N4CCN(c5ccccn5)CC4)ncn3n2)cc1
3,656,CCCNC(=O)C1CCCN(c2ccc(SCC(=O)Nc3cc(C)ccc3C)nn2)C1 (centres undefined)
4,684,CCn1ccc2sc(C)c(C(=O)N3CCCCC3)c2c1=O
5,620,CCOc1ccc(CNC(=O)c2cc(NC(C)=O)cc3nc(C)ccc23)cc1
6,644,Cn1cccc(C(=O)Nc2ccc(N3CCCS3(=O)=O)cc2)c1=O
7,1290,Cc1ccc(-c2nc(C)cc(SCC(=O)Nc3ccccc3Br)n2)cc1
8,1280,COc1ccc(-c2nc(-c3ccc(S(=O)(=O)N4CCCCC4)cc3)no2)cc1
9,1020,COc1ccccc1C(=O)N1CCCC1c1nc(-c2ccc(F)cc2F)no1 (centres undefined)
10,671,O=C(C1CCC1)N1CCC(c2nc(C3CCOCC3)no2)C1 (centres undefined)
11,635,CCCC(NCc1ccc2c(c1)n(C)c(=O)n2C)c1ccccc1 (centres undefined)
12,839,Cc1ccc(NC(=O)Cn2nc3c(N4CCSCC4)nccn3c2=O)cc1C
13,1190,Cc1ccc(-c2nc(-c3ccc(S(=O)(=O)N4CCOCC4)cc3)no2)cc1F
14,713,CCc1nnc(-c2ccc(=O)n(CC(=O)NCc3ccc(F)c(Cl)c3)c2)o1
15,885,CCCCNC(=O)C1Cc2cc(S(=O)(=O)N3CCCCC3)ccc2N1C(=O)CC (centres undefined)
16,835,O=C(Nc1ccc(C(=O)N2CCC(C(=O)NC3CCCCC3)CC2)cc1)c1ccc(Cl)cc1
17,719,CC(C)NC(=O)C1CCCN(c2nc3ncn(CC(=O)Nc4ccc(Cl)cc4)c(=O)c3s2)C1 (centres undefined)
18,718,CCC(C)C(NC(=O)c1ccccc1)C(=O)Nc1nc2ccccc2[nH]1 (centres undefined)
19,680,O=C(O)c1nnn(-c2cc(F)cc(F)c2)c1-c1ccccn1
20,885,Cc1cccc(-c2nc(N)n(C(=O)C3CC3)n2)c1

row,RP-LC retention time [s],Structure (SMILES)
1,1320,CCCc1ccc(S(=O)(=O)N2CCCC2c2nc(-c3ccc(C)cc3)no2)cc1 (centres undefined)
2,1050,CCn1ncc(NC(=O)COc2ccc(C(C)C)cc2)c(N2CCOCC2)c1=O
3,686,O=C(NCc1cccnc1-c1ccccc1)c1ccc(Br)cc1
4,800,O=C1[C@H]2CN(Cc3cccc(F)c3)C[C@H]2C(=O)N1Cc1ccc2c(c1)OCO2
5,716,COc1ccc(OC)c(NC(=O)NC2CCN(c3ccc(F)cc3)C2=O)c1 (centres undefined)
6,837,CCc1noc(-c2ccc(-n3ncc(C(=O)NC(C)C)c3C)nc2)n1
7,704,O=C(c1cccs1)N1CCCC1c1nc(-c2ccccc2)n[nH]1 (centres undefined)
8,632,Cc1c(Cl)cccc1NC(=O)N1CCN(C2=CC3=NCC(C)N3C=N2)CC1 (centres undefined)
9,790,CCOC(=O)C1CCN(c2nc(-c3ccc(OC)cc3)nc3ccccc23)CC1
10,918,O=C(NC1CC1)C1CCN(c2nc3ccc(-c4cccc(F)c4)nc3s2)CC1
11,641,O=C(Nc1ccc(Br)cc1)Nc1c(-c2ccncc2)nc2ccccn12
12,582,Cc1nnc(NC(=O)C2CCN(C(=O)NC3CC3)CC2)s1
13,774,Cc1ccccc1Nc1c(-c2c(F)cccc2Cl)nc2c(C)cccn12
14,770,Cc1cc(C)cc(C(=O)NC2CCN(c3cc(-c4ccccc4)[nH]n3)C2)c1 (centres undefined)
15,786,Cc1cc(C)cc(NC(=O)Cc2nnc(-c3ccc4ncccc4c3)o2)c1
16,530,COc1ccccc1-c1ccc(N2CCC(C(=O)NN3CCOCC3)CC2)nn1
17,609,CC(C)NC(=O)Cn1cnc2ccccc2c1=O
18,871,CCC(C)Sc1nnc(NC(=O)C2CCN(C(=O)c3ccccc3F)CC2)s1 (centres undefined)
19,734,O=C(Cc1cccs1)N1CCC(COc2ccc(C(=O)N3CCOCC3)cc2)CC1
